Here are results for 26 molecules from ChEMBL document CHEMBL5120862, “Novel non-covalent LSD1 inhibitors endowed with anticancer effects in leukemia and solid tumor cellular models” (Eur J Med Chem, 2022).

As usually defined, the Ki is a measure of affinity in units of concentration, obtained from inhibition or displacement. What is called IC50 is the concentration needed to halve the response being measured. For orientation: Kd means the concentration at which binding is half-saturated. The inhibition is the relative decrease from the control value, in per cent.

Data set [1] addresses T1, LSD1/CoREST complex (Homo sapiens, UniProt O60341). Briefly: Inhibition of human LSD1/CoREST using histone H3 peptide as substrate by fluorescence polarization assay. In kind it is protein-complex assay. For orientation: Polarisation of emitted light reports the rotation of a fluorescent probe.
The subject of data set [2] is THP-1. Briefly: Antiproliferative activity against human THP-1 cells assessed as inhibition of cell growth incubated for 144 hrs by CellTiter-Glo luminescent cell viability assay. In kind it is functional, cell-based. To be noted: THP-1, 144 h. (In general: In ATP-based viability assays light output follows the ATP content of the culture.)
Data set [3] has as its target T2, Histone-lysine N-methyltransferase EHMT2 (Homo sapiens, UniProt Q96KQ7).
T2 sequence (Q96KQ7 whole entry): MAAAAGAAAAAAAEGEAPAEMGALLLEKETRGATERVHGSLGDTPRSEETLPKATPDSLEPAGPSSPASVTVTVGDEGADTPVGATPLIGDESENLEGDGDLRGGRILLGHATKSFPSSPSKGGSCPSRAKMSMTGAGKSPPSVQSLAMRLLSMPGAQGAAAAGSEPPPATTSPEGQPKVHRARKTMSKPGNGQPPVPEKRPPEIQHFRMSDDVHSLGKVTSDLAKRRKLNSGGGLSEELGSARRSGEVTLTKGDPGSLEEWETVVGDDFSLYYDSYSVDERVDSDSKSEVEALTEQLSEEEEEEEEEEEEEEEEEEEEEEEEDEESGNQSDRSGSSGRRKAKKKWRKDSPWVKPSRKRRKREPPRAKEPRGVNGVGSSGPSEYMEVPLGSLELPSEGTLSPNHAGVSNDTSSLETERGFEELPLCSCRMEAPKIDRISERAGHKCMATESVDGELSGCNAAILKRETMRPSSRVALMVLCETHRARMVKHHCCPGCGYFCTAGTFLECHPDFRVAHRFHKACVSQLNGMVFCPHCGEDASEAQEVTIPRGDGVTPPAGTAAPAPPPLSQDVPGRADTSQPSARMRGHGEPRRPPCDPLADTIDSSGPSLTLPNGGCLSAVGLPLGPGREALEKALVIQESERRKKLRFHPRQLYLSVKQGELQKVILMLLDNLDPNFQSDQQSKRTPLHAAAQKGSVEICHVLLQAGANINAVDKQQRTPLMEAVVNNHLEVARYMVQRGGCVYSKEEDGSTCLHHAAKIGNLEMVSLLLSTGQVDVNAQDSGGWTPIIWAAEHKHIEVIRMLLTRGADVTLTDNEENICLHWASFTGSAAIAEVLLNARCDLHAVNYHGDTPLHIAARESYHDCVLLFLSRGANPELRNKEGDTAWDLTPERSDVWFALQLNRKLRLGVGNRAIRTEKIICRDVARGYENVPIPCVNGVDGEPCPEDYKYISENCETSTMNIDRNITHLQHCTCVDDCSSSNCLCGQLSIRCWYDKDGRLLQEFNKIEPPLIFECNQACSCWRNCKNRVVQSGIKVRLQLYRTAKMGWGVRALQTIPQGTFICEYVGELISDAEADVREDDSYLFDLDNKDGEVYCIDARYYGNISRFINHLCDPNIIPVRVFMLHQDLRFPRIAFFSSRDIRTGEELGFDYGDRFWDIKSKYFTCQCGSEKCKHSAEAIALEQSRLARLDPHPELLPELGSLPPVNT
Description: Inhibition of G9a (unknown origin) assessed as reduction in substrate methylation using histone H3 and SAM as substrate measured after 15 to 60 mins by microfluidic capillary electrophoresis analysis.

The target of data set [4] is T1, LSD1/CoREST complex. Description: Binding affinity to human LSD1/CoREST assessed as dissociation constant by competitive fluorescence polarization assay. In kind it is protein-complex assay.
Data set [5] relates to THP-1. Briefly: Antiproliferative activity against human THP-1 cells assessed as inhibition of cell growth incubated for 72 hrs by CellTiter-Glo luminescent cell viability assay. Type of data set: functional, cell-based. To be noted: THP-1, 72 h.
Data set [6] has as its system THP-1. Description: Antiproliferative activity against human THP-1 cells assessed as inhibition of cell growth incubated for 24 hrs by CellTiter-Glo luminescent cell viability assay. Type of data set: functional, cell-based. To be noted: THP-1, 24 h.
For data set [7], the system named is MDA-MB-231. Description: Antiproliferative activity against human MDA-MB-231 cells assessed as inhibition of cell growth measured after 72 hrs by MTT assay. To be noted: MDA-MB-231, 72 h. Type of data set: functional, cell-based. Background: Formazan colour is commonly taken as a measure of viable cells.
The target of data set [8] is Lysine-specific histone demethylase 1A (Homo sapiens) (UniProt O60341). Briefly: Inhibition of LSD1 in human MV4-11 cells assessed as increase in H3K4me2 level at 0.2 to […] incubated for 24 hrs by Western blot analysis. To be noted: dose 0.2-2.5 µM. Type of data set: cell-based.
For data set [9] the target is unchanged. Description: Inhibition of LSD1 in human MV4-11 cells assessed as increase in CD86 expression level incubated for 24 hrs by qRT-PCR analysis. To be noted: dose 0.2-1 µM. In kind it is cell-based.
Data set [10] deals with MV4-11. Description: Induction of apoptosis in human MV4-11 cells assessed as accumulation of cells at sub-G1 phase incubated for 24 hrs. Type of data set: functional, cell-based. To be noted: dose 0.2-25 µM, DDE = dose-dependent effect.
The subject of data set [11] is MV4-11. Briefly: Induction of cell cycle arrest in human MV4-11 cells assessed as accumulation of cells at G1 phase at 0.2 to […] incubated for 24 hrs. Type of data set: functional, cell-based. To be noted: dose 0.2-2.5 µM.
Data set [12] relates to MV4-11. Description: Antiproliferative activity against human MV4-11 cells assessed as inhibition of cell growth at […] incubated for 72 to 144 hrs by trypan blue staining based analysis. Type of data set: functional. To be noted: dose 2.5 µM, time 72-144 hrs.
Data set [13] is described as follows: Cytotoxicity against human AHH-1 cells assessed as residual cell viability at 1 uM measured after 72 hrs by MTT assay relative to control. Type of data set: toxicity, cell-based. To be noted: read-out: Activity.
Data set [14] can be described thus: Cytotoxicity against HMEC cells assessed as residual cell viability at 1 uM incubated for 72 hrs by MTT assay relative to control. Type of data set: toxicity, cell-based. To be noted: human, read-out: Activity.
The target in data set [15] is Histone-lysine N-methyltransferase EZH2 (Homo sapiens) (UniProt Q15910). Description: Inhibition of EZH2 (unknown origin) using [3H]SAM and chicken core histone as substrates at 100 uM incubated for 1 hr relative to control.
The target in data set [16] is Histone-lysine N-methyltransferase, H3 lysine-79 specific (Homo sapiens) (UniProt Q8TEK3). Description: Inhibition of […] (unknown origin) using [3H]SAM and HeLa oligo nucleosomes as substrates at 100 uM incubated for 1 hr relative to control.

SMILES strings stand for the structures. Activity calls are given as the source filed them. No cut-off for these calls is given here. Where only a bound is given, the exact number is not on record here.

Histone-lysine N-methyltransferase, H3 lysine-79 specific (Homo sapiens), sequence (Q8TEK3 whole entry, looked up): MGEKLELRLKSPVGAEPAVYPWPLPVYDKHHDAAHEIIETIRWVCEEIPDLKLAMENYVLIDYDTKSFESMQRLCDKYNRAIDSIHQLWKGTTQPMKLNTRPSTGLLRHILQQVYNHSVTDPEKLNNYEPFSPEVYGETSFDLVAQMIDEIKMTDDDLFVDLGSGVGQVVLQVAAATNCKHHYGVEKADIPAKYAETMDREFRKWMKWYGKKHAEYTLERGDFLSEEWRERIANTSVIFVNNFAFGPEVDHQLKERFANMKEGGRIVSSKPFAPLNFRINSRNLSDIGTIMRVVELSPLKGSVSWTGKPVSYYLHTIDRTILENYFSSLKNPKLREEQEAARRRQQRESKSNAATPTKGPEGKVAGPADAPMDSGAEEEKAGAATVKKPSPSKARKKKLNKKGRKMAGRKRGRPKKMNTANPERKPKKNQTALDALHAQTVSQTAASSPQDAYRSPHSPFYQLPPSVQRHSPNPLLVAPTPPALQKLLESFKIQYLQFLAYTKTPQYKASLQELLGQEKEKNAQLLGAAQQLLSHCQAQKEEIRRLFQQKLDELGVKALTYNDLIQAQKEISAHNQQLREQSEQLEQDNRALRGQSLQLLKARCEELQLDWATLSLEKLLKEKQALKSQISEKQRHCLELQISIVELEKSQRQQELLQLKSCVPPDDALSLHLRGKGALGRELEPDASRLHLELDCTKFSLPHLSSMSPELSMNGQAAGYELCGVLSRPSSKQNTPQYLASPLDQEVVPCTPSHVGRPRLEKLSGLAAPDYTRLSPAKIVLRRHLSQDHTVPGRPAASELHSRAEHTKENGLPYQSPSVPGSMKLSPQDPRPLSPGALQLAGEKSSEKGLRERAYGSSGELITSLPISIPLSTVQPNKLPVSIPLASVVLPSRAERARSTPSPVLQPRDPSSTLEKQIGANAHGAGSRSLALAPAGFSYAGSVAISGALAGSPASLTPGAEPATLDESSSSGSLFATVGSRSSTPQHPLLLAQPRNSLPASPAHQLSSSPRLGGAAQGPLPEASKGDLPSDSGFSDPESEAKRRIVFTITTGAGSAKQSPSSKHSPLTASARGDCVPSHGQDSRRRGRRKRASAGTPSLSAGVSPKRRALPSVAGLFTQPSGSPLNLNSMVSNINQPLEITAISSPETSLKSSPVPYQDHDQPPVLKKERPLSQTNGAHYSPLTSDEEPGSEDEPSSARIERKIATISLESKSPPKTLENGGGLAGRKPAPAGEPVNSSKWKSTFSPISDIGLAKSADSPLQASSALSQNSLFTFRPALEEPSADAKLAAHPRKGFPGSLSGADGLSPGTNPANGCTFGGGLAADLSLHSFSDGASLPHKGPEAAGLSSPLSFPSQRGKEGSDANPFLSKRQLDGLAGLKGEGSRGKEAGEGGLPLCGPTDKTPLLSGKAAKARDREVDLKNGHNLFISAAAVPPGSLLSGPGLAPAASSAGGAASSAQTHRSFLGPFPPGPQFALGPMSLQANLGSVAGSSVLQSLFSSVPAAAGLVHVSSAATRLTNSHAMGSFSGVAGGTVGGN
Histone-lysine N-methyltransferase EZH2 (Homo sapiens), sequence (Q15910 whole entry, looked up): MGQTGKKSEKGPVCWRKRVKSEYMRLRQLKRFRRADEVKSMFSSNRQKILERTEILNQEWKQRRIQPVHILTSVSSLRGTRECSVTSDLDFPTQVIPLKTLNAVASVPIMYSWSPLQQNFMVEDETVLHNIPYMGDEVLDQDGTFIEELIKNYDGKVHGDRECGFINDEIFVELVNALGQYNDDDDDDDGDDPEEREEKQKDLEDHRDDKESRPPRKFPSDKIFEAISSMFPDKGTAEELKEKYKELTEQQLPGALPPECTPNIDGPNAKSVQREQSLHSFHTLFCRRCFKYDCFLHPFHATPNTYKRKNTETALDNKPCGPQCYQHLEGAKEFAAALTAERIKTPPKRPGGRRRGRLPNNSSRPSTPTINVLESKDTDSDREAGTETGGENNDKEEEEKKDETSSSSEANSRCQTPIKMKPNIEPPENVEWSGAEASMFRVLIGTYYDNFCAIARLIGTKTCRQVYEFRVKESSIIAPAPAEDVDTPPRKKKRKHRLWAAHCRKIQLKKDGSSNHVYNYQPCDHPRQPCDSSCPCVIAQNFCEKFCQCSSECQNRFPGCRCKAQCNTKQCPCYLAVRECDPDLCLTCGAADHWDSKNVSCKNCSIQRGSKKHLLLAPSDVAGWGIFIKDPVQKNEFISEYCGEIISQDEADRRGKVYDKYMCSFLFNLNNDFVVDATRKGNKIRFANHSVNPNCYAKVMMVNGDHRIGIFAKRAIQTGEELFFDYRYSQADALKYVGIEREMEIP

Take `COc1cc2nc(NCCCN(C)C)nc(N(C)C3CCN(Cc4ccccc4)CC3)c2cc1OC`: the Ki in data set [1] is 569 nM; in data set [3], over 100000 nM. Further, the IC50 is 300 nM in [2], 430 nM in data set [5], 670 nM in data set [6] and 2380 nM in data set [7]. In addition, the Kd in [4] was 356 nM.
With `COc1cc2nc(N(C)CCCN(C)C)nc(NC3CCN(Cc4ccccc4)CC3)c2cc1OC`, the Ki in data set [3] came out at 5820 nM. Also, the Kd in data set [4] is 1300 nM.
`COc1cc2nc(NCCCN(C)C)nc(NC3CCNCC3)c2cc1OC`: the Ki in [3] was determined as 4830 nM. Besides, in [4], the Kd is 1560 nM.
Turning to `COc1cc2nc(NCCCN(C)C)nc(NC3CCN(C(=O)OC(C)(C)C)CC3)c2cc1OC`, the Ki was determined as 205 nM in data set [1] and 46900 nM in data set [3]. The results for the IC50 in [2], in [5] and in [6] were 550 nM, 710 nM and 870 nM, respectively. Also, in [4], the Kd came out at 82 nM.
Take `COc1cc2nc(NCCCN(C)C)nc(NC3CCN(Cc4ccc(-c5ccccc5)cc4)CC3)c2cc1OC`: the inhibition entry in [8], in [9] and in data set [12] was “Active” each time. The Ki was 146 nM in data set [1] and 1180 nM in data set [3]. The IC50 in [2] was 87 nM; in data set [5], 120 nM; in data set [6], 170 nM; in data set [7], 290 nM. Further, in data set [10], the Activity entry is “Dde”. Besides, in data set [11], the outcome was Active. Moreover, the viability at 72 h, 1 µM turned out to be 79.1% in data set [13] and 88.1% in [14]. Moreover, in data set [4], the Kd is 81 nM.
Take `COc1cc2nc(NCCCN3CCOCC3)nc(NC3CCN(Cc4ccccc4)CC3)c2cc1OC`: the inhibition constant Ki in data set [3] was 22600 nM. Also, the Kd in data set [4] came to 369 nM.
As to `COc1cc2nc(NCCCN3CCCC3)nc(NC3CCN(Cc4ccccc4)CC3)c2cc1OC`, the Ki in data set [1] is 183 nM; in data set [3] it was 4010 nM. Besides, in data set [4], the Kd amounted to 82 nM.
Take `COc1cc2nc(NCCN(C)C)nc(NC3CCN(Cc4ccccc4)CC3)c2cc1OC`: the Ki in data set [3] amounted to 5260 nM. For the same molecule, the Kd in data set [4] worked out at 237 nM.
Turning to `COc1cc2nc(NC3CCN(C)CC3)nc(NC3CCN(Cc4ccccc4)CC3)c2cc1OC`, in data set [3], the Ki amounted to 6330 nM. The Kd in data set [4] was determined as 82 nM.
For `COc1cc2nc(NCCCN(C)C)nc(NC3CCN(Cc4ccccc4)C3)c2cc1OC` (configuration not stated) the same measures were 8030 nM and 251 nM.
As to `Nc1ncnc2c1ncn2[C@@H]1O[C@H](CSCC[C@H](N)C(=O)O)[C@@H](O)[C@H]1O`, the inhibition was found to be 84.2% in [15] and 100% in data set [16].
For the molecule `COc1cc2nc(NCCCN(C)C)nc(OC3CCN(Cc4ccccc4)CC3)c2cc1OC`, in [3], the Ki was over 100000 nM. Also, the Kd in data set [4] is 2850 nM.
Consider `COc1cc2nc(NCCCN(C)C)nc(NC3CCN(Cc4cccc5ccccc45)CC3)c2cc1OC`, for which the Ki in [1] was found to be 212 nM; in data set [3] it was 3100 nM. For the same molecule, the Kd in data set [4] amounted to 84 nM.
Regarding `COc1cc2nc(NCCCN(C)C)nc(NCC3CCN(Cc4ccccc4)CC3)c2cc1OC`, in [3], the Ki was determined as 22800 nM. Besides, in [4], the Kd came to 115 nM.
The corresponding values for `COc1cc2nc(NCCCN3CCN(C)CC3)nc(NC3CCN(Cc4ccccc4)CC3)c2cc1OC` are 13300 nM and 191 nM.
On to `COc1cc2nc(NCCCN(C)C)nc(NCCNc3cccc4ccccc34)c2cc1OC`, for which, in data set [3], the Ki was 41500 nM. The Kd in data set [4] came to 230 nM.
The corresponding values for `COc1cc2c(NCCNc3cccc4ccccc34)nc(NCCCN(C)C)nc2cc1OCc1ccccc1` are 20200 nM and 127 nM.
As to `COc1cc2nc(NCCCN(C)Cc3ccccc3)nc(NC3CCN(Cc4ccccc4)CC3)c2cc1OC`, the Ki in [3] came out at 9010 nM. Also, in data set [4], the Kd amounted to 162 nM.
The corresponding values for `COc1cc2nc(NCCCCCN(C)C)nc(NC3CCN(Cc4ccccc4)CC3)c2cc1OC` are 2790 nM and 127 nM.
For `COc1cc2nc(NCCCN(C)C)nc(NC3CCN(C)CC3)c2cc1OC` the same measures were 4170 nM and 1490 nM.
The corresponding values for `COc1cc2nc(NCCCN(C)C)nc(NC3CCN(CCc4ccccc4)CC3)c2cc1OC` are 3130 nM and 147 nM.
As to `COc1cc2nc(NCCCN(C)C)nc(NCCCNc3ccccc3)c2cc1OC`, in data set [3], the Ki stood at 48300 nM. Moreover, the Kd in [4] was determined as 228 nM.
As to `CCN(CC)CCCNc1nc(NC2CCN(Cc3ccccc3)CC2)c2cc(OC)c(OC)cc2n1`, the Ki in data set [1] came to 175 nM; in data set [3], 3940 nM. In addition, in data set [4], the Kd came to 86 nM.
Consider `COc1cc2nc(NCCCN(C)C)nc(NC3CCN(C(=O)c4ccccc4)CC3)c2cc1OC`, for which the Ki in data set [3] worked out at 32900 nM. Besides, in [4], the Kd is 975 nM.
Turning to `COc1cc2nc(NCCCN3CCCCC3)nc(NC3CCN(Cc4ccccc4)CC3)c2cc1OC`, the Ki in data set [1] turned out to be 170 nM; in data set [3] it was 3260 nM. In addition, the Kd in data set [4] was determined as 68 nM.
Turning to `COc1cc2nc(NCCCCN(C)C)nc(NC3CCN(Cc4ccccc4)CC3)c2cc1OC`, the Ki in [3] was 4240 nM. In [4], the Kd was determined as 112 nM.
